Earlier results, collected in patent publication US6475478B2, “Adsorbent, adsorbing and removing process and adsorber for endogenous cannabinoid” (Kaneka Corporation, priority 2000, dated 2002).

Details: octanol-water system; compound fixed on the carrier

Row | Compound | log P
1 | CCCCCCCCCCN [n-decyl amine] | 4.07
2 | CCCCN [n-butyl amine] | 0.97
